For one data set, the system named is Pseudomonas species. Conditions: cited from earlier work.
The subject of the next data set is Escherichia coli EC8. Description: Agar dilution MIC, Antibiotic Spectrum of Nebramycin VII. It is filed as cell-based. In general terms: Agar dilution tests growth on a series of plates holding different concentrations.
The subject of another data set is Serratia marcescens SE3. The description is as above. It counts as cell-based.
The nature of the next data set: Solubility. It is filed as physicochemical.
The next data set concerns Proteus vulgaris PR28. Description: Agar dilution MIC, Antibiotic Spectrum of Nebramycin VII. It is filed as cell-based.
The subject of the next data set is Proteus rettgeri PR7. The data set is described as above. It counts as cell-based.
Another data set concerns gram negative organisms. The experiment in a line: Antibacterial activity of nebramycin VII in words. It counts as cell-based.
In another data set the test system is Proteus rettgeri PR2. Description: Agar dilution MIC, Antibiotic Spectrum of Nebramycin VII. It is filed as cell-based.
The test system of data set [1] is Pseudomonas aeruginosa PI24. Described as above. It is filed as cell-based.
The subject of data set [2] is Pseudomonas aeruginosa PI1. Described as above. It is filed as cell-based.
For data set [3], the system named is Pseudomonas maltophilia 438. Described as above. It counts as cell-based.
The next data set relates to Proteus morganii PR15. The description is as above. It counts as cell-based.
For data set [4], the system named is Pseudomonas aeruginosa PS14. Described as above. It counts as cell-based.
In data set [5] the test system is Pseudomonas aeruginosa PI21. The description is as above. It counts as cell-based.
The subject of data set [6] is Pseudomonas solanacearum X185. It is filed as cell-based. Conditions: agar dilution.
For data set [7], the system named is Streptococcus sp. (group D) 9960. The experiment in a line: Agar dilution MIC, Antibiotic Spectrum of Nebramycin VII. It is filed as cell-based.
Data set [8] concerns Staphylococcus aureus 3074. The data set is described as above. Conditions: Staphylococcus aureus 3074, Penicillin G resistant strain.
The subject of data set [9] is Pseudomonas aeruginosa PI23. Described as above. It is filed as cell-based.
The next data set deals with Proteus mirabilis PR11. Described as above. It counts as cell-based.
Another data set concerns Enterobacter cloacae EB5. Described as above. It counts as cell-based.
Data set [10] concerns Enterobater aerogenes EB2. Described as above. It counts as cell-based.
The next data set concerns Providencia sp. 439. The description is as above. It is filed as cell-based.
Data set [11] concerns Streptococcus sp. (group D) 9901. The description is as above. It counts as cell-based.
Data set [12] concerns Pseudomonas aeruginosa PS34. The description is as above. It is filed as cell-based.
In data set [13] the test system is Staphylococcus aureus 3130. Described as above. Conditions: Staphylococcus aureus 3130, Methicillin resistant strain.
Data set [14] relates to Pseudomonas aeruginosa PI12. Described as above. It counts as cell-based.
In data set [15] the test system is Staphylococcus aureus 3055. The data set is described as above. Conditions: Staphylococcus aureus 3055, Penicillin G sensitive strain.
Data set [16] has as its system Pseudomonas aeruginosa PS15. The description is as above. It is filed as cell-based.
The test system of data set [17] is Pseudomonas aeruginosa PI27. The description is as above. It counts as cell-based.
For data set [18], the system named is Enterobacter aerogenes EB4. Described as above. It counts as cell-based.
In data set [19] the test system is Pseudomonas aeruginosa PS10. The description is as above. It counts as cell-based.
For data set [20], the system named is Pseudomonas aeruginosa PS9. The data set is described as above. It is filed as cell-based.
For another data set, the system named is Pseudomonas cepacia 5629. Described as above. It is filed as cell-based.
For the next data set, the system named is Proteus morganii PR1. The data set is described as above. It counts as cell-based.
Data set [21] has as its system Pseudomonas pseudomallei 121. It is filed as cell-based. As to conditions: agar dilution.
The next data set has as its system Escherichia coli EC2. Description: Agar dilution MIC, Antibiotic Spectrum of Nebramycin VII. It counts as cell-based.
The next data set relates to Proteus vulgaris PR27. The description is as above. It counts as cell-based.
Another data set relates to Enterobacter cloacae EB8. The data set is described as above. It is filed as cell-based.
Another data set deals with Proteus mirabilis PR3. The data set is described as above. It is filed as cell-based.
The test system of the next data set is Pseudomonas cepacia 3189. Described as above. It is filed as cell-based.
The subject of data set [22] is Pseudomonas aeruginosa PI37. The data set is described as above. It is filed as cell-based.

For the compound `CN[C@@H]1[C@@H](O[C@H]2O[C@H](CO)[C@@H](N)[C@H](O)[C@H]2O)OC2C[C@@H](N)[C@@H](O[C@H]3[C@H](O)[C@@H](O)[C@H](N)C[C@@H]3N)OC2[C@@H]1O` (some centres unmarked) [Nebramycin II], the “antibiotic activity against Pseudomonas species” value with Pseudomonas species was “antibiotic activity”.
`CN[C@@H]1[C@@H](O[C@H]2O[C@H](CO)[C@@H](N)[C@H](O)[C@H]2O)O[C@H]2[C@H](O)[C@@H](N)[C@@H](O[C@H]3[C@H](O)[C@@H](O)[C@H](N)C[C@@H]3N)O[C@@H]2[C@@H]1O` [Nebramycin VII]: the “Minimum Inhibitory Concentration” value in the data set on Escherichia coli EC8 was determined as 16 µg/mL; with Serratia marcescens SE3, 8 µg/mL; in the data set on Proteus vulgaris PR28, 8 µg/mL; in the data set with Proteus rettgeri PR7 it was 16 µg/mL; in the data set with Proteus rettgeri PR2, 32 µg/mL; in data set [1], 256 µg/mL. In addition, the “Minimum Inhibitory Concentration” value in data set [2] was 64 µg/mL; in [3] it was 16 µg/mL; with Proteus morganii PR15, 32 µg/mL; in data set [4], 8 µg/mL; in data set [5], > 256 µg/mL; in data set [6] it was 4 µg/mL. For the same compound, the “Minimum Inhibitory Concentration” value in [7] is 128 µg/mL; in [8], 4 µg/mL; in data set [9], > 256 µg/mL; with Proteus mirabilis PR11 it was 16 µg/mL; in the data set with Enterobacter cloacae EB5, 8 µg/mL; in data set [10], 8 µg/mL. For the same compound, the “Minimum Inhibitory Concentration” value was 32 µg/mL in the data set on Providencia sp. 439; > 256 µg/mL in data set [11]; 4 µg/mL in data set [12]; 4 µg/mL in [13]; 16 µg/mL in [14]; 8 µg/mL in data set [15]. Moreover, the “Minimum Inhibitory Concentration” value was determined as 8 µg/mL in data set [16]; 64 µg/mL in data set [17]; 8 µg/mL in data set [18]; 8 µg/mL in [19]; 16 µg/mL in data set [20]; 128 µg/mL in the data set with Pseudomonas cepacia 5629. Moreover, the “Minimum Inhibitory Concentration” value in the data set with Proteus morganii PR1 stood at 8 µg/mL; in data set [21], 32 µg/mL; in the data set with Escherichia coli EC2 it was 16 µg/mL; with Proteus vulgaris PR27, 8 µg/mL; in the data set with Enterobacter cloacae EB8, 8 µg/mL; in the data set with Proteus mirabilis PR3, 8 µg/mL. Besides, the “Minimum Inhibitory Concentration” value in the data set on Pseudomonas cepacia 3189 is 256 µg/mL; in [22], > 256 µg/mL. The “solubility in the higher alcohols and most common organic solvents” value in “Solubility” (higher alcohols and most common organic solvents) is on record as “substantially insoluble”. The solubility in methanol entry in the data set “Solubility” (methanol) was “slightly soluble”. The solubility in water entry in the data set “Solubility” (water) was “water soluble”. Also, the “activity against the gram negative organisms” value in the data set with gram negative organisms is given as “high degree of activity”. Further, in “Toxicity in words”, the toxicity entry is reported as “relatively non-toxic”.
